Columns and labels:
Format in all cases: in vivo
[1] = system: corn (Zea mays); experiment: Test A preemergence; settings: 0 to 100 scale
How it was run: (§1)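 Injury scores run from 0, no effect, to 100, complete control, judged by eye against untreated plants roughly 10 days after treatment. Chemicals carried a surfactant in a non-phytotoxic solvent and went onto loam–sand soil preemergence or onto one- to two-leaf seedlings postemergence.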

[2] = system: large (Lg) crabgrass (Digitaria sanguinalis); experiment: Test A preemergence; settings: for Plant response rating, Crabgrass, Large: 0 to 100 scale; for Crabgrass, Large plant response rating: 0 to 100 scale (0 no effect, 100 complete control)
How it was run: as §1

[3] = system: morningglory (Ipomoea spp.); experiment: Test A preemergence; settings: for Plant response rating, Morningglory: 0 to 100 scale; for Morningglory plant response rating: 0 to 100 scale (0 no effect, 100 complete control)
How it was run: as §1

[4] = system: velvetleaf (Abutilon theophrasti); experiment: Test A preemergence; settings: for Plant response rating, Velvetleaf: 0 to 100 scale; for Velvetleaf plant response rating: 0 to 100 scale (0 no effect, 100 complete control)
How it was run: as §1

[5] = system: wheat (Triticum aestivum); experiment: Test A preemergence; settings: for Plant response rating, Wheat: 0 to 100 scale; for Wheat plant response rating: 0 to 100 scale (0 no effect, 100 complete control)
How it was run: as §1

[6] = system: large (Lg) crabgrass (Digitaria sanguinalis); experiment: Test A postemergence; settings: 0 to 100 scale
How it was run: as §1

[7] = system: morningglory (Ipomoea spp.); experiment: Test A postemergence; settings: 0 to 100 scale
How it was run: as §1

[8] = system: velvetleaf (Abutilon theophrasti); experiment: Test A postemergence; settings: 0 to 100 scale
How it was run: as §1

[9] = system: Surinam grass (Brachiaria decumbens); experiment: Test E preemergence; settings: scale 0 to 100
How it was run: (§2)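 Seeds were sown in silt loam soil and sprayed preemergence with test chemicals in a non-phytotoxic solvent mixture containing surfactant. For postemergence, plants at the 1- to 4-leaf stage (2 to 18 cm) in peat-based potting medium were treated. After 14 to 21 days in a greenhouse, injury was rated visually against controls, 0 (no effect) to 100 (complete control).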

[10] = system: johnsongrass (Sorghum halepense); experiment: Test E preemergence; settings: scale 0 to 100
How it was run: as §2

[11] = system: ragweed (common ragweed, Ambrosia elatior); experiment: Test E preemergence; settings: scale 0 to 100
How it was run: as §2

[12] = system: velvetleaf (Abutilon theophrasti); experiment: Test E preemergence; settings: scale 0 to 100
How it was run: as §2

[13] = system: waterhemp (common waterhemp, Amaranthus rudis); experiment: Test E preemergence; settings: scale 0 to 100
How it was run: as §2

[14] = system: wild poinsettia (Euphorbia heterophylla); experiment: Test E preemergence; settings: scale 0 to 100
How it was run: as §2

[15] = system: horseweed (Conyza canadensis); experiment: Test E preemergence; settings: scale 0 to 100
How it was run: as §2

Compound	Plant response rating, Surinam Grass ([9]; 16 g ai/ha)	Plant response rating, Surinam Grass ([9]; 31 g ai/ha)	Plant response rating, Surinam Grass ([9]; 62 g ai/ha)	Plant response rating, Surinam Grass ([9]; 125 g ai/ha)	Plant response rating, Johnsongrass ([10]; 31 g ai/ha)	Plant response rating, Johnsongrass ([10]; 125 g ai/ha)	Plant response rating, Ragweed ([11]; 16 g ai/ha)	Plant response rating, Ragweed ([11]; 31 g ai/ha)	Plant response rating, Ragweed ([11]; 62 g ai/ha)	Plant response rating, Ragweed ([11]; 125 g ai/ha)	Plant response rating, Velvetleaf ([12]; 16 g ai/ha)	Plant response rating, Velvetleaf ([12]; 31 g ai/ha)	Plant response rating, Velvetleaf ([12]; 62 g ai/ha)	Plant response rating, Velvetleaf ([12]; 125 g ai/ha)	Plant response rating, Waterhemp ([13]; 16 g ai/ha)	Plant response rating, Waterhemp ([13]; 31 g ai/ha)	Plant response rating, Waterhemp ([13]; 62 g ai/ha)	Plant response rating, Waterhemp ([13]; 125 g ai/ha)	Plant response rating, Poinsettia, Wild ([14]; 31 g ai/ha)	Plant response rating, Poinsettia, Wild ([14]; 125 g ai/ha)	also measured
N#Cc1cccc(Oc2ncc(Cl)cn2)c1Oc1ncc(Cl)cn1 [Compound 3, 2,3-bis[(5-chloro-2-pyrimidinyl)oxy]benzonitrile]	–	–	–	–	–	–	–	–	–	–	–	–	–	–	–	–	–	–	–	–	Plant response rating, Corn ([1]; 125 g ai/ha): 60; Plant response rating, Corn ([1]; 500 g ai/ha): 70; Plant response rating, Crabgrass, Large ([2]; 125 g ai/ha): 100; Plant response rating, Crabgrass, Large ([2]; 500 g ai/ha): 100; Plant response rating, Morningglory ([3]; 125 g ai/ha): 100; Plant response rating, Morningglory ([3]; 500 g ai/ha): 100; Plant response rating, Velvetleaf ([4]; 125 g ai/ha): 100; Plant response rating, Velvetleaf ([4]; 500 g ai/ha): 100; Plant response rating, Wheat ([5]; 125 g ai/ha): 30; Plant response rating, Wheat ([5]; 500 g ai/ha): 80; Plant response rating, Crabgrass, Large ([6]; 125 g ai/ha): 90; Plant response rating, Crabgrass, Large ([6]; 500 g ai/ha): 90; Plant response rating, Morningglory ([7]; 125 g ai/ha): 100; Plant response rating, Morningglory ([7]; 500 g ai/ha): 100; Plant response rating, Velvetleaf ([8]; 125 g ai/ha): 100; Plant response rating, Velvetleaf ([8]; 500 g ai/ha): 100
Clc1cnc(Oc2cccc(Br)c2Oc2ncc(Cl)cn2)nc1 [Compound 19, 2,2′-[[3-bromo-1,2-phenylene]bis(oxy)]bis[5-chloropyrimidine]]	0	0	10	10	0	100	0	0	10	50	0	0	50	100	65	65	100	100	0	70	Plant response rating, Corn ([1]; 125 g ai/ha): 10; Plant response rating, Corn ([1]; 500 g ai/ha): 60; Crabgrass, Large plant response rating ([2]; 125 g ai/ha): 100; Plant response rating, Crabgrass, Large ([2]; 500 g ai/ha): 100; Morningglory plant response rating ([3]; 125 g ai/ha): 70; Plant response rating, Morningglory ([3]; 500 g ai/ha): 100; Velvetleaf plant response rating ([4]; 125 g ai/ha): 80; Plant response rating, Velvetleaf ([4]; 500 g ai/ha): 90; Wheat plant response rating ([5]; 125 g ai/ha): 40; Plant response rating, Wheat ([5]; 500 g ai/ha): 70; Plant response rating, Crabgrass, Large ([6]; 125 g ai/ha): 70; Plant response rating, Crabgrass, Large ([6]; 500 g ai/ha): 90; Plant response rating, Morningglory ([7]; 125 g ai/ha): 70; Plant response rating, Morningglory ([7]; 500 g ai/ha): 100; Plant response rating, Velvetleaf ([8]; 125 g ai/ha): 100; Plant response rating, Velvetleaf ([8]; 500 g ai/ha): 100; Plant response rating, Johnsongrass ([10]; 16 g ai/ha): 0; Plant response rating, Johnsongrass ([10]; 62 g ai/ha): 50; Plant response rating, Poinsettia, Wild ([14]; 16 g ai/ha): 0; Plant response rating, Poinsettia, Wild ([14]; 62 g ai/ha): 15
Fc1cccc(Oc2ncc(Cl)cn2)c1Oc1ncc(Cl)cn1 [Compound 21, 2,2′-[[3-fluoro-1,2-phenylene]bis(oxy)]bis[5-chloropyrimidine]]	0	10	0	50	30	100	0	50	50	98	80	70	100	100	65	80	100	100	10	60	Plant response rating, Corn ([1]; 125 g ai/ha): 40; Plant response rating, Corn ([1]; 500 g ai/ha): 60; Crabgrass, Large plant response rating ([2]; 125 g ai/ha): 100; Plant response rating, Crabgrass, Large ([2]; 500 g ai/ha): 100; Morningglory plant response rating ([3]; 125 g ai/ha): 90; Plant response rating, Morningglory ([3]; 500 g ai/ha): 100; Velvetleaf plant response rating ([4]; 125 g ai/ha): 80; Plant response rating, Velvetleaf ([4]; 500 g ai/ha): 90; Wheat plant response rating ([5]; 125 g ai/ha): 60; Plant response rating, Wheat ([5]; 500 g ai/ha): 60; Plant response rating, Crabgrass, Large ([6]; 125 g ai/ha): 80; Plant response rating, Crabgrass, Large ([6]; 500 g ai/ha): 90; Plant response rating, Morningglory ([7]; 125 g ai/ha): 90; Plant response rating, Morningglory ([7]; 500 g ai/ha): 100; Plant response rating, Velvetleaf ([8]; 125 g ai/ha): 90; Plant response rating, Velvetleaf ([8]; 500 g ai/ha): 100; Plant response rating, Johnsongrass ([10]; 16 g ai/ha): 0; Plant response rating, Johnsongrass ([10]; 62 g ai/ha): 65; Plant response rating, Poinsettia, Wild ([14]; 16 g ai/ha): 0; Plant response rating, Poinsettia, Wild ([14]; 62 g ai/ha): 50
Fc1ccc(F)c(Oc2ncc(Cl)cn2)c1Oc1ncc(Cl)cn1 [Compound 34, 2,2′-[(3,6-difluoro-1,2-phenylene)bis(oxy)]bis[5-chloropyrimidine]]	0	0	–	10	–	–	0	0	25	35	30	100	100	100	100	100	100	100	10	50	Plant response rating, Horseweed ([15]; 16 g ai/ha): 0; Plant response rating, Horseweed ([15]; 31 g ai/ha): 0; Plant response rating, Horseweed ([15]; 62 g ai/ha): 0; Plant response rating, Horseweed ([15]; 125 g ai/ha): 0; Plant response rating, Poinsettia, Wild ([14]; 16 g ai/ha): 0; Plant response rating, Poinsettia, Wild ([14]; 62 g ai/ha): 20
N#Cc1cccc(Oc2ncc(Cl)cn2)c1Oc1ncc(C(F)(F)F)cn1 [Compound 38, 3-[(5-chloro-2-pyrimidinyl)oxy]-2-[[5-(trifluoromethyl)-2-pyrimidinyl]oxy]-benzonitrile]	0	0	15	40	0	95	40	40	60	70	20	65	85	100	50	98	98	100	–	–	Plant response rating, Horseweed ([15]; 16 g ai/ha): 0; Plant response rating, Horseweed ([15]; 31 g ai/ha): 0; Plant response rating, Horseweed ([15]; 62 g ai/ha): 100; Plant response rating, Horseweed ([15]; 125 g ai/ha): 98; Plant response rating, Johnsongrass ([10]; 16 g ai/ha): 0; Plant response rating, Johnsongrass ([10]; 62 g ai/ha): 100
Fc1cccc(Oc2ncc(C(F)(F)F)cn2)c1Oc1ncc(Cl)cn1 [Compound 42, 5-chloro-2-[2-fluoro-6-[[5-(trifluoromethyl)-2-pyrimidinyl]oxy]phenoxy]pyrimidine]	0	0	40	85	80	100	0	20	65	100	75	80	100	100	98	100	100	100	20	100	Plant response rating, Horseweed ([15]; 31 g ai/ha): 0; Plant response rating, Johnsongrass ([10]; 16 g ai/ha): 80; Plant response rating, Johnsongrass ([10]; 62 g ai/ha): 95; Plant response rating, Poinsettia, Wild ([14]; 16 g ai/ha): 20; Plant response rating, Poinsettia, Wild ([14]; 62 g ai/ha): 80
Fc1cccc(Oc2ncc(Cl)cn2)c1Oc1ncc(C(F)(F)F)cn1 [Compound 43, 5-chloro-2-[5-fluoro-6-[[5-(trifluoromethyl)-2-pyrimidinyl]oxy]phenoxy]pyrimidine]	–	25	–	80	90	100	–	60	–	85	–	70	–	100	–	90	–	100	65	100	–
